# According to PubChem BioAssay (NCI):
#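 Test compounds were applied to cells in 96-well plates for 48 hours at 5 doses. TGI: concentration producing complete growth inhibition.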
# Key:
# Experiment in all cases: NCI anticancer screen, dose series, 48 h
# [1] = test system: DU-145 prostate
# [2] = test system: HOP-92 NSCLC
# [3] = test system: UO-31 renal
# [4] = test system: A498 renal
# [5] = test system: SF-295 CNS
# [6] = test system: HCT-15 colon
# [7] = test system: MALME-3M melanoma
# [8] = test system: SF-539 CNS
# [9] = test system: NCI-H522 lung
# [10] = test system: NCI-H23 lung
# [11] = test system: NCI-H226 lung
# [12] = test system: SF-268 CNS
# [13] = test system: PC-3 prostate
# [14] = test system: M14 melanoma
# [15] = test system: MDA-MB-435
# [16] = test system: OVCAR-3 ovarian
# [17] = test system: ACHN renal
# [18] = test system: HT29 colon
# [19] = test system: RPMI-8226 leukemia
# [20] = test system: CCRF-CEM leukemia
# [21] = test system: EKVX NSCLC
# [22] = test system: SK-MEL-5 melanoma
# [23] = test system: SK-MEL-28 melanoma
# [24] = test system: NCI/ADR-RES ovarian
# [25] = test system: IGROV1 ovarian
# [26] = test system: HS 578T breast
# [27] = test system: A549 NSCLC
# [28] = test system: UACC-257 melanoma
# [29] = test system: KM12 colon
# [30] = test system: HL-60(TB) leukemia
# [31] = test system: BT-549 breast
# [32] = test system: SK-OV-3 ovarian
# [33] = test system: OVCAR-4 ovarian
# [34] = test system: SNB-19 CNS
# [35] = test system: CAKI-1 renal
# [36] = test system: OVCAR-8 ovarian
# [37] = test system: HOP-62 NSCLC
# [38] = test system: LOX IMVI melanoma
# [39] = test system: K-562 leukemia
# [40] = test system: RXF 393 renal
# [41] = test system: SW-620 colon
# [42] = test system: TK-10 renal
# [43] = test system: U251 CNS
# [44] = test system: OVCAR-5 ovarian
# [45] = test system: SN12C renal
# [46] = test system: SK-MEL-2 melanoma
# [47] = test system: HCT-116 colon
# [48] = test system: SNB-75 CNS
# [49] = test system: HCC-2998 colon
# [50] = test system: NCI-H460 lung
# [51] = test system: MDA-N
# [52] = test system: 786-0 renal
# [53] = test system: MDA-MB-231 breast
# [54] = test system: T-47D breast
# [55] = test system: MCF7 breast
# [56] = test system: SR leukemia
# [57] = test system: MOLT-4 leukemia
# [58] = test system: COLO 205 colon
# [59] = test system: UACC-62 melanoma
# [60] = test system: DMS 114 small cell lung
# [61] = test system: HOP-18 NSCLC
# [62] = test system: DMS 273 small cell lung
# [63] = test system: LXFL 529 NSCLC
# [64] = test system: DLD-1 colon
# [65] = test system: M19-MEL melanoma
# [66] = test system: KM20L2 colon
# [67] = test system: SNB-78 CNS
smiles,measurement,setting,value
COc1ccc2cc(CN3CCC(C4CCNCC4)CC3)ccc2c1,TGI,[1],15 µM
same,TGI,[2],5.75 µM
same,TGI,[3],6.29 µM
same,TGI,[4],14.7 µM
same,TGI,[5],3.5 µM
same,TGI,[6],6.44 µM
same,TGI,[7],3.02 µM
same,TGI,[8],4.03 µM
same,TGI,[9],4.54 µM
same,TGI,[10],33 µM
same,TGI,[11],29.2 µM
same,TGI,[12],> 22.3 µM
same,TGI,[13],28 µM
same,TGI,[14],3.15 µM
same,TGI,[15],3.58 µM
same,TGI,[16],15.8 µM
same,TGI,[17],11.9 µM
same,TGI,[18],2.65 µM
same,TGI,[19],4.61 µM
same,TGI,[20],12.7 µM
same,TGI,[21],21.2 µM
same,TGI,[22],3.1 µM
same,TGI,[23],3.27 µM
same,TGI,[24],21 µM
same,TGI,[25],15.2 µM
same,TGI,[26],> 30.5 µM
same,TGI,[27],36.8 µM
same,TGI,[28],3.47 µM
same,TGI,[29],5.25 µM
same,TGI,[30],3.38 µM
same,TGI,[31],24.3 µM
same,TGI,[32],23.4 µM
same,TGI,[33],31.3 µM
same,TGI,[34],18.3 µM
same,TGI,[35],6.03 µM
same,TGI,[36],22.1 µM
same,TGI,[37],8.98 µM
same,TGI,[38],2.94 µM
same,TGI,[39],3.22 µM
same,TGI,[40],5.19 µM
same,TGI,[41],3.42 µM
same,TGI,[42],21.3 µM
same,TGI,[43],3.74 µM
same,TGI,[44],20.4 µM
same,TGI,[45],23 µM
same,TGI,[46],3.81 µM
same,TGI,[47],3.73 µM
same,TGI,[48],5.95 µM
same,TGI,[49],1.41 µM
same,TGI,[50],4.4 µM
same,TGI,[51],4.19 µM
same,TGI,[52],3 µM
same,TGI,[53],5.08 µM
same,TGI,[54],5.23 µM
same,TGI,[55],6.32 µM
same,TGI,[56],5.16 µM
same,TGI,[57],4.84 µM
same,TGI,[58],3.25 µM
same,TGI,[59],3.87 µM
CCN(CC)CCNC(=O)c1cn2c(ccc3sc4ccccc4c(=O)c32)n1,TGI,[1],25 µM
same,TGI,[2],24.6 µM
same,TGI,[3],21 µM
same,TGI,[4],33.4 µM
same,TGI,[5],23.9 µM
same,TGI,[6],21.2 µM
same,TGI,[7],26.9 µM
same,TGI,[8],24.9 µM
same,TGI,[9],25.6 µM
same,TGI,[10],28.4 µM
same,TGI,[11],40.6 µM
same,TGI,[12],24.8 µM
same,TGI,[13],23.4 µM
same,TGI,[14],29 µM
same,TGI,[15],54 µM
same,TGI,[16],26.7 µM
same,TGI,[17],18.6 µM
same,TGI,[18],20.4 µM
same,TGI,[19],29 µM
same,TGI,[20],25.3 µM
same,TGI,[21],35.3 µM
same,TGI,[22],22.9 µM
same,TGI,[23],25.6 µM
same,TGI,[24],27.8 µM
same,TGI,[25],21.3 µM
same,TGI,[26],34.6 µM
same,TGI,[27],21 µM
same,TGI,[28],30.1 µM
same,TGI,[29],24.9 µM
same,TGI,[30],25.4 µM
same,TGI,[31],28.5 µM
same,TGI,[32],25.5 µM
same,TGI,[33],22.8 µM
same,TGI,[34],27.5 µM
same,TGI,[35],24.2 µM
same,TGI,[36],31.8 µM
same,TGI,[37],21.4 µM
same,TGI,[38],> 48.9 µM
same,TGI,[39],36.8 µM
same,TGI,[40],24.2 µM
same,TGI,[41],20.3 µM
same,TGI,[42],19.1 µM
same,TGI,[43],> 51.6 µM
same,TGI,[44],21.7 µM
same,TGI,[45],23.7 µM
same,TGI,[46],38 µM
same,TGI,[47],20.7 µM
same,TGI,[48],32.6 µM
same,TGI,[49],24.3 µM
same,TGI,[50],14.9 µM
same,TGI,[51],28.4 µM
same,TGI,[52],19.5 µM
same,TGI,[53],27.5 µM
same,TGI,[54],30 µM
same,TGI,[55],38.2 µM
same,TGI,[56],26.6 µM
same,TGI,[57],11.9 µM
same,TGI,[58],21.1 µM
same,TGI,[59],29.1 µM
CC(C)(C)C(=O)OC12/C(=N/O)CCCCCC1c1ccccc12 (configuration not stated),TGI,[3],31.7 µM
same,TGI,[4],30.5 µM
same,TGI,[60],35.4 µM
same,TGI,[5],29.2 µM
same,TGI,[6],33 µM
same,TGI,[7],37.4 µM
same,TGI,[8],39 µM
same,TGI,[9],35 µM
same,TGI,[61],34 µM
same,TGI,[10],31.3 µM
same,TGI,[11],35.4 µM
same,TGI,[12],32.4 µM
same,TGI,[14],31.2 µM
same,TGI,[16],32.1 µM
same,TGI,[17],31.8 µM
same,TGI,[62],34.3 µM
same,TGI,[18],26 µM
same,TGI,[19],30.9 µM
same,TGI,[20],64 µM
same,TGI,[22],31.7 µM
same,TGI,[23],32.8 µM
same,TGI,[25],29.6 µM
same,TGI,[27],31.6 µM
same,TGI,[28],28.5 µM
same,TGI,[29],30.1 µM
same,TGI,[30],45.5 µM
same,TGI,[32],33.6 µM
same,TGI,[63],30.3 µM
same,TGI,[33],33 µM
same,TGI,[64],34.6 µM
same,TGI,[34],31.1 µM
same,TGI,[35],24.6 µM
same,TGI,[36],33.4 µM
same,TGI,[37],37 µM
same,TGI,[38],28.8 µM
same,TGI,[39],55.4 µM
same,TGI,[65],30.2 µM
same,TGI,[40],33.9 µM
same,TGI,[41],34.2 µM
same,TGI,[42],30.1 µM
same,TGI,[43],33.1 µM
same,TGI,[44],28.7 µM
same,TGI,[45],33.6 µM
same,TGI,[46],37.3 µM
same,TGI,[47],27.5 µM
same,TGI,[48],27.8 µM
same,TGI,[49],> 100 µM
same,TGI,[50],32.3 µM
same,TGI,[52],31 µM
same,TGI,[66],36.5 µM
same,TGI,[57],34.4 µM
same,TGI,[58],31.3 µM
same,TGI,[67],46.6 µM
same,TGI,[59],31.5 µM
